Assay results published in patent US4800194A, “Acylphosphorotriamides useful as lipid-altering agents” (priority 1986, dated 1989).

Key:
[1] = system: Hyperlipidemic Guinea Pigs; assay: Multiple dose study in hyperlipidemic guinea pigs: plasma LDL/HDL ratio by lipoprotein electrophoresis (Test Method 2, Example 29); type: in vivo, guinea pig; conditions: 2.5 mg/kg i.p. once daily
Text: Male Hartley guinea pigs (Elm Hill Breeding Labs., Chelmsford, MA or Charles River, Wilmington, MA) was used in all experiments unless otherwise specified. The animals were maintained on a normal diet of rabbit pellets (Purina Rabbit Chow 5321, Ralston Purina, St. Louis, MO) and water containing 0.1% ascorbic acid ad libitum. For special studies in the hyperlipidemic guinea pig model, the animals were maintained on the high cholesterol diet described in this report and water containing 0.1% ascorbic acid ad libitum.
Individual animals were identified by ear and cage markings. The dose of drug or placebo was adjusted daily for changes in the weight of the guinea pigs. Blood samples were collected in EDTA Vacutainers by open chest cardiac puncture under carbon dioxide anesthesia from guinea pigs which had been fasted overnight. The animals were then sacrificed by CO2 inhalation. Blood samples were centrifuged at 2000 rpm for 15 min. in an IEC centrifuge (International Equipment Co., Boston, MA) with a 240 rotor for isolation of plasma. Lipoprotein analyses of plasma were carried out on the same day as the blood collection. Assays of pseudocholinesterase activity were carried out within a week of blood collection on plasma samples which had been stored at 4° C.
Freshly prepared samples of EDTA plasma were analyzed for lipoproteins with the Redi-Disc Lipoprotein Electrophoresis Kit (Miles Laboratories, Elkhart, IN) by the procedure recommended in the package insert supplied in the kit.
Redi-Disc Lipoprotein Gel Tubes, polyacrylamide 3%, buffer, preservative.
Redi-Disc Lipoprotein Loading Gel, acrylamide 2.5 g/dl., N,N'-methylenebisacrylamide 0.6 g/dl, sudan black B 13 mg/dl, catalyst, stabilizer, buffer.
Redi-Disc Lipoprotein Buffer, Trishydroxymethylaminomethane 27% w/w, boric acid 73% w/w, pH of solution 7.4-7.9 (11 g diluted to 1200 ml with water).
The gel tubes were removed from the storage buffer and shaken to remove excess buffer. A 25 μl aliquot of plasma was added to each tube and mixed with 200 μl of loading gel. The loading gel was photopolymerized for 30-40 min. under a fluorescent light. The gel tubes were placed in the electrophoresis apparatus (Buchler Instruments, Fort Lee, NJ) and Redi-Disc Liproprotein Buffer was then added to the upper and lower chambers of the apparatus. The current was adjusted to 5 mA per gel tube. Electrophoresis was stopped when the HDL band was about 4-5 mm from the bottom of the gel tube.
The gels were stored in water for at least 30 min. following electrophoresis to allow the lipoprotein zones to spread. The gels were scanned at 615 nm in either a Beckman Acta C111 spectrophotometer or a Beckman DU-8B spectrophotometer. The areas of the lipoprotein peaks (VLDL, LDL, and HDL) were determined by gravimetric analysis (cut and weighed) on the Acta C111 or by electronic integration on the DU-8B.
A 1:15 mixture of cholesterol:corn oil was prepared by adding 25 g of USP cholesterol (Sigma Chemical Company, St. Louis, MO) to 375 g of corn oil (Mazola, Best Foods, CPC International, Inc., Englewood Cliffs, NJ). The mixture was stirred, sonicated, and heated in a hot water bath until the cholesterol completely dissolved. It was necessary to keep the mixture warm (50°-60° C.) in order to prevent congealing.
Batches of feed were prepared by adding 160 g of the cholesterol-corn oil solution to 840 g of Purina Rabbit Chow 5321. The pellets and lipid mixture were thoroughly mixed in a 2-liter or 3-liter Erlenmeyer flask to ensure uniform coating of the pellets. The feed was then stored at room temperature until needed.
Two groups of male Hartley Guinea pigs were maintained on the high cholesterol diet described above and water containing 0.1% ascorbic acid ad libitum. One group was treated once daily with a freshly prepared solution of test compound 4, N-(diaminophosphinyl)-4-fluorobenzamide, (1.0 mg/ml in 0.9% saline solution) at 2.5 mg/kg by intraperitoneal injection for 14 days. […]

[2] = target: T1, acetylcholinesterase (Homo sapiens, UniProt P22303); assay: Inhibition of acetylcholinesterase (AChE) activity of lysed human red blood cells (Test Method 1); type: biochemical; conditions: 60 min preincubation
T1 construct: The supernatant (lysed RBC's) was stored frozen; from tissue; host or cells: lysed human red blood cells (supernatant of hypotonic lysis)
T1 sequence (P22303 other isoform, or with tags, fused parts or gaps): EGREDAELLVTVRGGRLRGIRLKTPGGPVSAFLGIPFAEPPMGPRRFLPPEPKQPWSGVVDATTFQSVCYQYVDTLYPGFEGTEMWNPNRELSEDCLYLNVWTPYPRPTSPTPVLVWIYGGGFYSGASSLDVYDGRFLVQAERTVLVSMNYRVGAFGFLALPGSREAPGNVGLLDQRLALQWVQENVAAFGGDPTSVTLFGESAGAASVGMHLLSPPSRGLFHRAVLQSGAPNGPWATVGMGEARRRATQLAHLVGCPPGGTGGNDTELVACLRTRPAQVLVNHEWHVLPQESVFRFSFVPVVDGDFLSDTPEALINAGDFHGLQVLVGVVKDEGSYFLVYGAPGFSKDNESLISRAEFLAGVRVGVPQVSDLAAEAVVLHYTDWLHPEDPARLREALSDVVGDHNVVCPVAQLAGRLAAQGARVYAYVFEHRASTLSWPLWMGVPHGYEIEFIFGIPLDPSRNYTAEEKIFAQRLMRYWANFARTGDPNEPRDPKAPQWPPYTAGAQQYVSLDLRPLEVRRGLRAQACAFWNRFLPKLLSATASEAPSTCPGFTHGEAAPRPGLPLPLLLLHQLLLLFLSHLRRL
Experimental: The following method was used to determine the relative inhibition of pseudocholinesterase and acetylcholinesterase by compounds of the present invention.
Lysed Red Blood Cells (RBC's) (Source of Acetylcholinesterase Enzyme)
Human blood which was collected in EDTA treated tubes was centrifuged at 1500×g for 10 min. at 4° C. One volume of chilled 0.9% saline solution was gently mixed with one volume of packed RBC's. One volume of this suspension was then washed three times with ten volumes of chilled 0.9% saline solution (4° C.). Each wash was centrifuged at 1500×g for 10 min. at 4° C. and supernatant was discarded. After the last wash the supernatant was replaced with deionized, distilled water (treated by Milli-Q apparatus, Millipore Corp., Bedford, MA) (4° C.). After 15 min. at 4° C. the suspension was centrifuged at 1500×g for 10 min. at 4° C. The supernatant (lysed RBC's) was stored frozen at -20° C. until use.
The buffer/chromogen solution was 0.25 mM 5,5'-dithiobis-[2-nitrobenzoic acid] (chromogen), 50 mM phosphate buffer, pH 7.2. In making up the buffer/chromogen solution and to keep it as colorless as possible, the phosphate buffer was first adjusted to pH 7.1 with NaOH; the chromogen was then added and dissolved; the pH was adjusted to 7.2; and the final volume was adjusted with addition of Milli-Q water. 5,5'-dithiobis-(2-nitrobenzoic acid) was obtained from Sigma Chemicals, St. Louis, MO.
The substrate solution for the pseudocholinesterase assay was 156 mM S-butyrylthiocholine iodide, and the substrate solution for the acetylcholinesterase assay was 156 mM S-acetylthiocholine iodide. Both substrate compounds were obtained from Sigma Chemicals.
Test Compound Stock Solutions
Solutions of all test compounds were made up at 2 μM, 20 μM, and 200 μM concentrations (in 0.9% saline solution) except as noted where lower concentrations were necessary because of decreased solubility of the compound in saline solution.
Acetylcholinesterase (AChE) Assay
The acetylcholinesterase assay was performed identically to the pseudocholinesterase assay with the following exceptions. The concentrations of the stock solutions of test compounds were 20 μM and 200 μM, instead of 2 μM and 20 μM, and the substrate solution was 156 mM S-acetylthiocholine iodide instead of S-butyrylthiocholine iodide. The lysed RBC's/test compound solution was incubated for 0 and 60 minutes instead of 0 and 30 minutes before being added to the cuvette containing the buffer/chromogen/substrate solution. From a plot of net absorbance versus time there was an initial period before the curve reached a steady linear rate. From this linear portion of the curve a rate of absorbance change per minute was calculated.
Each compound was tested for its ability to inhibit plasma pseudocholinesterase activity and acetylcholinesterase activity. Because of variation in the time points in the linear portion of the curve, inhibition values below 10-15% and higher than 85-90% are nearly indistinguishable from 0% and 100%, respectively.

SMILES: NP(N)(=O)NC(=O)c1ccc(F)cc1 [Test Compound 4, N-(diaminophosphinyl)-4-fluorobenzamide]
- LDL/HDL ratio vs saline-treated control ([1]; 14th day of treatment, result in words): significantly lower (p<0.05)
- LDL/HDL ([1]; day 1, control 2.45): 1.91
- LDL/HDL ([1]; day 3, control 2.28): 2.43
- LDL/HDL ([1]; day 7, control 4.25): 4.08
- LDL/HDL ([1]; day 10, control 3.23): 2.75
- LDL/HDL ([1]; day 14, control 2.60, significantly different from control (p < 0.05)): 1.50
- inhibition at 10 µM ([2]; 10 μM): 12.4%
- inhibition at 100 µM ([2]; 100 μM): 52.3%
